Assay results taken from patent publication US20040142379A1, “Affinity fishing for ligands and proteins receptors” (Carlsberg Research Laboratory, priority 2003, published 2004).
Entries after “also recorded” stand apart in the source; their conditions may differ. Non-standard residues stand in square brackets, D forms with d. No end group written: not given here. Aze = O=C(O)[C@@H]1CCN1

How the values were obtained:
[1] = test system: Phenylephrine Treated (Hyperthrophic) Myocytes protein mixture; experiment: Solid phase screening of Library 1 with labeled myocyte proteins; on-bead affinity isolation and peptide mass fingerprinting of bound protein (PE-induced); format: binding, neonatal Wistar rats; details: proteins bound to resin-bound Library 1 ligand, primarily present in PE-treated hypertrophied cells; LA low abundance, M transmembrane or partially embedded, MA membrane associated
Method: (§1) Myocytes were prepared from 1 to 5 day old neonatal Wistar rats (University of Copenhagen) according to literature procedure described in Busk et al., 2002, Cardiovasc. Res., 56: 64-75 and plated into eight P10 culture plates at 6 million cells/plate. Cells were grown at 37° C. and 5% CO2 humidity in serum free Modified Eagle Media (MEM). After 2 days, the adherent cells were washed at room temperature with serum free MEM (2×) and fresh MEM was added. To four of the plates, 10 μM phenylephrine (PE) was also added. Cells were grown for two more days and then harvested as described below.
(§2) Protein was extracted from myocytes prepared as described above for Example 9, using a new procedure modified from existing protocols, primarily: Arnott, et al., 1998, Anal. Biochem. 258: 1-18. The media was removed from plates and adhered cells were treated for 10 minutes with ice cold phosphate buffer (0.25 mL, 10 mM, pH 7.5, augmented with 0.15 M NaCl 60 mM Benzamidine HCl, 5 mM EDTA, 10 μg/mL E-64, 10 μg/mL Leupeptin, 10 μg/mL Pepstatin A, and 1 mM PMSF). The cells were scraped off the plates and then lysed (on ice) in a sonicator (2×) using 10 seconds off/10 seconds on cycles.
(§3) The resulting suspension was augmented with CHAPS, DTT, and urea to a final concentration of CHAPS (1% w/v), DTT (5 mM), and urea (8 M). After 10-15 minutes on ice, the solution was centrifuged for 10 minutes at 15,000 rpm at 4° C. The supernatant was removed and protein content quantified using the NanoOrange Protein test (Molecular Probes, Eugene, Oreg.): Total protein recovered: 70.5 μg for PE-treated cells and 60 μg for basal cells.
(§4) Fluorescent dye Oregon Green 514 (OR) (Molecular Probes) was used to label the healthy/basal cells while Rhodamine Red (RR) (Molecular Probes) was used to label the PE-treated cells. The labeling procedures were carried out according to the manufacturer's protocol. The protein solutions (0.25 mL, 50.4 μg for PE cells and 0.25 mL, 42.8 μg for basal cells) were dialyzed against a solution of 10 mM phosphate buffer, 0.15 M NaCl, pH 7.5 and then 1 M NaHCO3 (0.025 mL) added to a final pH of 8.5. 10 μL of dye in dry DMF (10 mg/mL) was added and the sample stirred at room temperature for 2 hours. The protein solution was dialyzed extensively against 10 mM phosphate buffer, 0.15 M NaCl, pH 7.5, to remove excess dye.
(§5) Ligand library 1 (200 mg), prepared as described for Example 5, was transferred to a syringe fitted with a stop-valve and the ligand-beads were washed for 10 minutes (3×) with 10 mM phosphate buffer, pH 6.8, supplemented with 0.15 M NaCl, 1 mM Ca^2+, 1 mM Zn^2+, 1 mM Mn^2+, 1 mM Cu^2+, and 1 mM Mg^2+ (3 mL). The ligand-beads were treated with a 1% BSA solution for 30 minutes, then washed with buffer (1×). A mixture of labeled myocyte proteins, including both PE-induced protein (138 μL, 40 μg) and basal protein (167 μL, 40 μg) obtained as described above for Example 11, was prepared in 1.2 mL buffer, and added to the ligand library in the syringe. The proteins and ligand library were incubated at room temperature for 16 hours. The library was then washed with buffer for 5 minutes then with water for 3×5 minutes. The library was examined under a fluorescence microscope and brightly fluorescent red, green, and yellow beads (yellow indicative of both dyes red and green binding; the majority of the beads) were present, as well as unlabelled beads. The fluorescent beads were parted and retained for analysis.
(§6) The fluorescent ligand library beads containing bound myocyte protein obtained as described in Example 15, were sorted using a COPAS (250) NF Bead Sorter (Union Biometrica, Somerville, Mass.). Beads emitting fluorescence of only one color contain proteins from one physical state, proteins expressed only in the PE-induced hypertrophic state (red) or proteins expressed only in the basal state (green).

[2] = test system: Normal Myocytes (basal) protein mixture; experiment: Solid phase screening of Library 1 with labeled myocyte proteins; on-bead affinity isolation and peptide mass fingerprinting of bound protein (basal); format: binding, neonatal Wistar rats; details: proteins bound to resin-bound Library 1 ligand, primarily present in basal cells; LA low abundance, M transmembrane or partially embedded, MA membrane associated; parentheses = possible complexes
Method: as §1, §2, §3, §4, §5, §6

[3] = molecular target: T1, Phosphomannose isomerase (Candida albicans, UniProt P34948); details: in Candida; Wells et al, 1996; cited from earlier work
T1 sequence (P34948 1-441): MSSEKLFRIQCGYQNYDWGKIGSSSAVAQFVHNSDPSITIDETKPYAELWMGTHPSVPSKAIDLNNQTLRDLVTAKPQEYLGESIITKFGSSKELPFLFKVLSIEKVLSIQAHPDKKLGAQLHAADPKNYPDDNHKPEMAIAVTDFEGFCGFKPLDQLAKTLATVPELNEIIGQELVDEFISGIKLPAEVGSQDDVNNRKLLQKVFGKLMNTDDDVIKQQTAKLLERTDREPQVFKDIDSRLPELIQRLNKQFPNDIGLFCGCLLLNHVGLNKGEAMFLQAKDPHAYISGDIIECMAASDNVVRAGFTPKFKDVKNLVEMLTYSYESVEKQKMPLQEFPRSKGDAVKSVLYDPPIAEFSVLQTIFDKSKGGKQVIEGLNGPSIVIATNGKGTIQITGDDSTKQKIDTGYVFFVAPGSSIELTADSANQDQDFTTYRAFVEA

[4] = test system: isoleucine tRNA synthetase; details: approved antibiotic; Merck Manual; cited from earlier work
[5] = test system: Myocytes; experiment: Myocyte culture with phenylephrine (in vitro model of hypertrophy); format: cell-based, neonatal Wistar rats; details: 10 μM phenylephrine, grown two more days, serum free MEM
Method: as §1
Using the procedures described above for Examples 1-5, the ligand Library 1 (containing unnatural amino acids) as described for Example 5, myocyte proteins prepared and labeled as described for Examples 9 and 11, screening as described for Example 15, sorting and identifying as described for Examples 18 to 21, digestion and protein identification as described for Examples 25-31, previously unknown, specific, differential ligand-protein binding pairs were identified for the normal (basal) myocyte protein mixtures and the phenylephrine (PE)-treated myocyte proteins screened against the ligands of Library 1. Phenylephrine was used to provide an in vitro model of hypertrophy, for example, cardiac hypertrophy (Arnott et al., 1998, Anal. Biochem., 1:1-18).

Row | Molecule | Identified Protein(s) [1] | Identified Protein(s) [2] | further results
1 | Phe-Gua-Pal-Tyr-Gua-Tyr | Glucose-6-Phosphatase; Succinate dehydrogenase; ARL-interacting; also recorded: protein (M); SPTR (M), Nucleic acid binding protein | – | –
2 | Pya-Gua-Abi-Asp-Abi-Tyr | SPTR (M); Ribosomal proteins (60s); (Calcium channel (M); Slo channel; also recorded: protein isoform (M); Potassium conductance calcium activated channel; also recorded: (M); Symporter (M;) NADH dehydrogenase; Malate dehydrogenase; N-; also recorded: Acetyl transferase; Mitochondrial associated protein; G-protein receptor; also recorded: used for signaling (LA, M) | – | –
3 | Abi-Thr-Hyp-Hyp-His-?- | Phosphofructokinase; Selenium binding protein; (Serine arginine rich; also recorded: protein kinase (LA); Guanylate kinase (LA), Protein tyrosine kinase; also recorded: (LA)); Alkaline phosphatase; Symporter (M); SPTR (M); WAP-protein;; also recorded: GTP Hydrolase, Actin filament | – | –
4 | Phe-Thr-Pya-Pip-Asp-His | – | (Sodium channel (M); Chloride channel (M)) Troponin; Ribosomal; also recorded: proteins L26; Serine hydroxy methyl transferase; Zn Finger protein (MA);; also recorded: Adherin aminotransferase (M); (Gluthathione transferase; Gluthathione; also recorded: peroxidase;) | –
5 | Pya-Hyp-Hyp-Phe-Acm-Tyr | – | Troponin T; Growth hormone receptor (M); Protein kinase (LA) | –
6 | Nc1ccc(S(=O)(=O)Nc2ncccn2)cc1 [sulfadiazene] | – | – | enzyme inhibition [3]: inhibited
7 | Pal-Abi-Gly-Gly-Abi-His | Ribosomal protein (60s + 40s); Low density lipoprotein receptor | – | –
8 | Abi-Phe-Abi-Phe-Che-Tyr | Cathepsin E; Ribosomal proteins, Actin binding protein, Amino acid; also recorded: transferase | – | –
9 | C/C(=C\C(=O)OCCCCCCCCC(=O)O)C[C@@H]1OC[C@H](C[C@@H]2O[C@H]2[C@@H](C)[C@H](C)O)[C@@H](O)[C@H]1O [Mupirocin] | – | – | enzyme inhibition [4]: inhibits
10 | F[Aze]GHG[Aze] | – | Hypothetical proteins; Cysteine and tyrosine rich proteins of unknown; also recorded: function (M); (Mitochondrial ATP synthase; Ribosomal proteins (L; also recorded: series);) Serine protease; SPTR | –
11 | Phe-Abi-Pal-Hyp-Thr-Hyp | Zinc finger associated protein; Ribosomal proteins; Protein phosphatase and (LA) | – | –
12 | Pya-Gua-Pip-Acc-Phe-Pip | – | NADH dehydrogenase; ATP binding component (M); Myosin; Histone; also recorded: associated proteins (M) | –
13 | CNC[C@H](O)c1cccc(O)c1 [PE, phenylephrine] | – | – | cell size at time of harvest [5]: significantly enlarged
